pIC50: −log10 of the molar value.
Target: T1, KSP (Homo sapiens, UniProt P52732)
T1 sequence (P52732 1-1056): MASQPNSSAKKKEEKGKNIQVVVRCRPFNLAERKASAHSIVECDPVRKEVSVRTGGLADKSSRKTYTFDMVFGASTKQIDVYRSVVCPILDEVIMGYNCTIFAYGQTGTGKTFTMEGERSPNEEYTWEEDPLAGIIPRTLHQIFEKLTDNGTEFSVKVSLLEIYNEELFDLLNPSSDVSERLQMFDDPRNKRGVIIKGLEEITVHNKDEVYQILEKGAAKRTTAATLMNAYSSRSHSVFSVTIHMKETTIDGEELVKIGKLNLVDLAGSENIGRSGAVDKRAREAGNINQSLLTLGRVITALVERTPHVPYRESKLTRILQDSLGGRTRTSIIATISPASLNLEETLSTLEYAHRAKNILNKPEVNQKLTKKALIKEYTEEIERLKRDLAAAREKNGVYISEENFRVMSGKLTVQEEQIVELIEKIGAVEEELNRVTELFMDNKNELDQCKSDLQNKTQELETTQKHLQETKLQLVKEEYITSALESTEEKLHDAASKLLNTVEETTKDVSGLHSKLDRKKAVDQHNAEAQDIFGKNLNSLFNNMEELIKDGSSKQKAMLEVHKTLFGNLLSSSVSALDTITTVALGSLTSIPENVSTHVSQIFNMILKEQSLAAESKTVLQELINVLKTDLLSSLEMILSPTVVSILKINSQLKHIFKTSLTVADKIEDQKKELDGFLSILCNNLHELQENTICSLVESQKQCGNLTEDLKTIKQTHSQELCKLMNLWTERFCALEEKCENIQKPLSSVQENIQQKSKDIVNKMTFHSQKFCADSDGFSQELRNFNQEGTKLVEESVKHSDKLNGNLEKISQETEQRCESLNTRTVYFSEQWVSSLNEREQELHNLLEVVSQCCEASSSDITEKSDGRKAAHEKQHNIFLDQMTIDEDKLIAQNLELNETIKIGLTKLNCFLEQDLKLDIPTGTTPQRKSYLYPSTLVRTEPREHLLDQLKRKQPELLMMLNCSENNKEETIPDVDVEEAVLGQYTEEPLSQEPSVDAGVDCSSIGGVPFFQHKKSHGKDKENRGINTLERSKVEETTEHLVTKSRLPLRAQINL
Experiment: KSP inhibitory activity, end-point assay
Assay type: biochemical
Settings: KSP inhibitory activity based on end-point assay; read-out: IC50 Rating
Excerpt: The inhibitory activity of the present compounds towards KSP may be assayed by methods known in the art, for example, by using the methods as described in the examples.

SMILES | pIC50
C[C@@H](CO)NC(=O)c1c[nH]c2cc3c(nc12)CCC(C(C)(C)C)C3 (stereo partly shown) [Example 76] | < 5.00
C[C@H](CO)NC(=O)c1c[nH]c2cc3c(nc12)CCC(C(C)(C)C)C3 (stereo partly shown) [Example 77] | < 5.00
C=CCNC(=O)c1c[nH]c2cc3c(nc12)CCC(C(C)(C)C)C3 (stereo not shown) [Example 78] | < 5.00
CC(C)(C)C1CCc2nc3c(C(=O)NN)c[nH]c3cc2C1 (stereo not shown) [Example 79] | 6.00 to 7.00
CC(C)(C)C1CCc2nc3c(C(=O)NCCCO)c[nH]c3cc2C1 (stereo not shown) [Example 80] | 5.00 to 6.00
CC(C)(C)C1CCc2nc3c(C(N)=O)c[nH]c3cc2C1 (stereo not shown) [Example 82] | 6.00 to 7.00
CC(C)(C)C1CCc2nc3cc[nH]c3cc2C1 (stereo not shown) [Example 83] | > 7.00
CC(=O)Nc1c[nH]c2cc3c(nc12)CCC(C(C)(C)C)C3 (stereo not shown) [Example 84] | 5.00 to 6.00
CC(C)(C)C1CCc2nc3c(CC(N)=O)c(O)[nH]c3cc2C1 (stereo not shown) [Example 85] | < 5.00
COCCOCc1cc2nc3c(cc2[nH]1)CC(C(C)(C)C)CC3 (stereo not shown) [Example 86] | 6.00 to 7.00
COCc1cc2nc3c(cc2[nH]1)CC(C(C)(C)C)CC3 (stereo not shown) [Example 87] | 6.00 to 7.00
CCOCc1cc2nc3c(cc2[nH]1)CC(C(C)(C)C)CC3 (stereo not shown) [Example 88] | 6.00 to 7.00
CC(C)OCc1cc2nc3c(cc2[nH]1)CC(C(C)(C)C)CC3 (stereo not shown) [Example 89] | < 5.00
CC(C)(C)C1CCc2nc3cc(C(=O)NCc4ccc5c(c4)OCO5)[nH]c3cc2C1 (stereo not shown) [Example 90] | < 5.00
CC(C)(C)C1CCc2nc3cc(C(=O)NCc4ccccn4)[nH]c3cc2C1 (stereo not shown) [Example 91] | < 5.00
CC(C)(C)C1CCc2nc3cc(C(=O)NCCN4CCNCC4)[nH]c3cc2C1 (stereo not shown) [Example 92] | 5.00 to 6.00
Cc1cc(C)n(C(=O)c2c[nH]c3cc4c(nc23)CCC(C(C)(C)C)C4)n1 (stereo not shown) [Example 93] | < 5.00
CC(C)(C)C1CCc2nc3c(C(=O)Nc4ncccn4)c[nH]c3cc2C1 (stereo not shown) [Example 94] | < 5.00
CC(C)(C)C1CCc2nc3cc(C(=O)NNc4ccccc4)[nH]c3cc2C1 (stereo not shown) [Example 95] | < 5.00
CC(C)(C)C1CCc2nc3cc(C(=O)Nc4nnn[nH]4)[nH]c3cc2C1 (stereo not shown) [Example 96] | 6.00 to 7.00
CC(C)(C)C1CCc2nc3cc(C(=O)Nc4ccncc4)[nH]c3cc2C1 (stereo not shown) [Example 97] | 6.00 to 7.00
CCOC(=O)c1cc(NC(=O)c2cc3nc4c(cc3[nH]2)CC(C(C)(C)C)CC4)c[nH]1 (stereo not shown) [Example 98] | < 5.00
CC(C)(C)C1CCc2nc3cc(C(=O)NNCCC#N)[nH]c3cc2C1 (stereo not shown) [Example 99] | < 5.00
CNNC(=O)c1cc2nc3c(cc2[nH]1)CC(C(C)(C)C)CC3 (stereo not shown) [Example 100] | < 5.00
CC(C)(C)C1CCc2nc3cc(C(=O)NNc4ccccn4)[nH]c3cc2C1 (stereo not shown) [Example 101] | 6.00 to 7.00

SMILES | pIC50
CC(C)(C)C1CCc2nc3cc(C(=O)Nc4ccc(O)cc4)[nH]c3cc2C1 (stereo not shown) [Example 102] | 6.00 to 7.00
CC(C)(C)[C@@H]1CCc2nc3cc(C(=O)Nc4ccc(O)cc4)[nH]c3cc2C1 [Example 103A] | 6.00 to 7.00
CC(C)(C)[C@H]1CCc2nc3cc(C(=O)Nc4ccc(O)cc4)[nH]c3cc2C1 [Example 103B] | < 5.00
CC(C)(C)C1CCc2nc3cc(C(=O)Nc4ccc(N)nc4)[nH]c3cc2C1 (stereo not shown) [Example 104] | 6.00 to 7.00
CC(C)(C)C1CCc2nc3cc(C(=O)Nc4ccc(CCO)cc4)[nH]c3cc2C1 (stereo not shown) [Example 105] | 5.00 to 6.00
CC(C)(C)C1CCc2nc3cc(C(=O)N[C@H](CO)c4ccccc4)[nH]c3cc2C1 (stereo partly shown) [Example 106] | 6.00 to 7.00
CC(C)(C)C1CCc2nc3cc(C(=O)N[C@@H](CO)c4ccccc4)[nH]c3cc2C1 (stereo partly shown) [Example 107] | < 5.00
CC(C)(C)C1CCc2nc3cc(C(=O)N[C@H](CO)Cc4ccccc4)[nH]c3cc2C1 (stereo partly shown) [Example 108] | < 5.00
CC(C)(C)C1CCc2nc3cc(C(O)c4ccccc4)[nH]c3cc2C1 (stereo not shown) [Example 109] | < 5.00
COc1cccc(C(O)c2cc3nc4c(cc3[nH]2)CC(C(C)(C)C)CC4)c1 (stereo not shown) [Example 110] | < 5.00
COc1ccc(C(O)c2cc3nc4c(cc3[nH]2)CC(C(C)(C)C)CC4)cc1 (stereo not shown) [Example 111] | < 5.00
CC(C)(C)C1CCc2nc3cc(C(O)c4cccc(Cl)c4)[nH]c3cc2C1 (stereo not shown) [Example 112] | < 5.00
CCC(O)c1cc2nc3c(cc2[nH]1)CC(C(C)(C)C)CC3 (stereo not shown) [Example 113] | 6.00 to 7.00
C=CCC(O)c1cc2nc3c(cc2[nH]1)CC(C(C)(C)C)CC3 (stereo not shown) [Example 114] | 6.00 to 7.00
CC(C)(C)C1CCc2nc3c(-c4cccc(O)c4)c(C(N)=O)[nH]c3cc2C1 (stereo not shown) [Example 115] | 5.00 to 6.00
COc1cccc(-c2c(C(N)=O)[nH]c3cc4c(nc23)CCC(C(C)(C)C)C4)c1 (stereo not shown) [Example 116] | < 5.00
CC(C)(C)C1CCc2nc3c(-c4cccc(OC(F)(F)F)c4)c(C(N)=O)[nH]c3cc2C1 (stereo not shown) [Example 117] | < 5.00
COc1ccc(OC)c(-c2c(C(N)=O)[nH]c3cc4c(nc23)CCC(C(C)(C)C)C4)c1 (stereo not shown) [Example 118] | < 5.00
CC(C)(C)C1CCc2nc3c(-c4cccc(C#N)c4)c(C(N)=O)[nH]c3cc2C1 (stereo not shown) [Example 119] | < 5.00
CC(C)(C)C1CCc2nc3c(-c4cccc(S(C)(=O)=O)c4)c(C(N)=O)[nH]c3cc2C1 (stereo not shown) [Example 120] | 6.00 to 7.00
CC(C)(C)C1CCc2nc3c(-c4cccc(N)c4)c(C(N)=O)[nH]c3cc2C1 (stereo not shown) [Example 121] | < 5.00
CC(C)(C)C1CCc2nc3cc(C(=O)N[C@H](CN)c4ccccc4)[nH]c3cc2C1 (stereo partly shown) [Example 122] | 6.00 to 7.00
CC(C)(C)C1CCc2nc3cc(C(=O)N[C@H](CN)c4cccc(N)c4)[nH]c3cc2C1 (stereo partly shown) [Example 123] | > 7.00
CC(C)(C)C1CCc2nc3cc(C(=O)N[C@H](CN)c4cccc(NC(=O)c5ccco5)c4)[nH]c3cc2C1 (stereo partly shown) [Example 124] | > 7.00

From patent publication US20100068181A1, “PYRROLO [3, 2-A] PYRIDINE DERIVATIVES FOR INHIBITING KSP KINESIN ACTIVITY” (Schering Corporation, priority 2006, published 2010)
